Results from ChEMBL document CHEMBL3751693, “Synthesis, antimicrobial evaluation and molecular modeling of 5-hydroxyisoquinolinium salt series; the effect of the hydroxyl moiety” (Bioorg Med Chem, 2016).

Tests used:
[1] = tested on: Nakaseomyces glabratus; assay: Antimicrobial activity against Candida glabrata 20/I after 48 hrs by spectrophotometry; type: functional
[2] = tested on: Pichia kudriavzevii; assay: Antimicrobial activity against Candida krusei E28 after 48 hrs by spectrophotometry; type: functional; details: E28, 48 h
[3] = tested on: Klebsiella pneumoniae; assay: Antimicrobial activity against clinical isolate Klebsiella pneumoniae D 1175008 after 24 hrs; type: functional; details: D 1175008, 24 h
[4] = tested on: Lichtheimia corymbifera; assay: Antimicrobial activity against Absidia corymbifera 272 after 48 hrs by spectrophotometry; type: functional; details: Lichtheimia corymbifera, 272, 48 h
[5] = tested on: Candida albicans; assay: Antimicrobial activity against Candida albicans ATCC 44859 after 48 hrs by spectrophotometry; type: functional; details: ATCC 44859, 48 h
[6] = tested on: Trichophyton mentagrophytes; assay: Antimicrobial activity against Trichophyton mentagrophytes 445 after 72 hrs by spectrophotometry; type: functional; details: Trichophyton mentagrophytes, 445, 72 h
[7] = tested on: Escherichia coli; assay: Antimicrobial activity against clinical isolate Escherichia coli CCM 4517 after 24 hrs; type: functional; details: CCM 4517, 24 h
[8] = tested on: Staphylococcus aureus; assay: Antimicrobial activity against clinical isolate Staphylococcus aureus CCM 451608 after 24 hrs; type: functional; details: CCM 451608, 24 h
[9] = tested on: Staphylococcus aureus; assay: Antimicrobial activity against clinical isolate methicillin-resistant Staphylococcus aureus H 599608 after 24 hrs; type: functional; details: H 599608, 24 h
[10] = tested on: Enterococcus sp.; assay: Antimicrobial activity against clinical isolate Enterococcus sp. J 1436508 after 48 hrs; type: functional; details: J 1436508, 48 h
[11] = tested on: Staphylococcus epidermidis; assay: Antimicrobial activity against clinical isolate Staphylococcus epidermidis H 696608 after 48 hrs; type: functional; details: H 696608, 48 h
[12] = tested on: Klebsiella pneumoniae; assay: Antimicrobial activity against clinical isolate Klebsiella pneumoniae D 1175008 after 48 hrs; type: functional; details: D 1175008, 48 h
[13] = tested on: Lichtheimia corymbifera; assay: Antimicrobial activity against Absidia corymbifera 272 after 24 hrs by spectrophotometry; type: functional; details: Lichtheimia corymbifera, 272, 24 h
[14] = tested on: Pseudomonas aeruginosa; assay: Antimicrobial activity against clinical isolate Pseudomonas aeruginosa CCM 1961 after 72 hrs; type: functional; details: CCM 1961, 72 h
[15] = tested on: Klebsiella pneumoniae; assay: Antimicrobial activity against clinical isolate ESBL-Klebsiella pneumoniae J 1436808 after 24 hrs; type: functional; details: J 1436808, 24 h
[16] = Cytotoxicity against CHOK1 cells after 24 hrs by MTT assay; type: cell-based; details: Cricetulus griseus, CHO-K1, 24 h
[17] = tested on: Trichophyton mentagrophytes; assay: Antimicrobial activity against Trichophyton mentagrophytes 445 after 120 hrs by spectrophotometry; type: functional; details: Trichophyton mentagrophytes, 445, 120 h
[18] = tested on: Pichia kudriavzevii; assay: Antimicrobial activity against Candida krusei E28 after 24 hrs by spectrophotometry; type: functional; details: E28, 24 h
[19] = tested on: Trichosporon asahii; assay: Antimicrobial activity against Trichosporon asahii 1188 after 48 hrs by spectrophotometry; type: functional; details: Trichosporon asahii, 1188, 48 h
[20] = tested on: Candida tropicalis; assay: Antimicrobial activity against Candida tropicalis 156 after 48 hrs by spectrophotometry; type: functional; details: Candida tropicalis, 156, 48 h
[21] = tested on: Staphylococcus aureus; assay: Antimicrobial activity against clinical isolate methicillin-resistant Staphylococcus aureus H 599608 after 48 hrs; type: functional; details: H 599608, 48 h
[22] = tested on: Klebsiella pneumoniae; assay: Antimicrobial activity against clinical isolate ESBL-Klebsiella pneumoniae J 1436808 after 48 hrs; type: functional; details: J 1436808, 48 h
[23] = tested on: Enterococcus sp.; assay: Antimicrobial activity against clinical isolate Enterococcus sp. J 1436508 after 24 hrs; type: functional; details: J 1436508, 24 h
[24] = tested on: Staphylococcus epidermidis; assay: Antimicrobial activity against clinical isolate Staphylococcus epidermidis H 696608 after 24 hrs; type: functional; details: H 696608, 24 h
[25] = tested on: Trichosporon asahii; assay: Antimicrobial activity against Trichosporon asahii 1188 after 24 hrs by spectrophotometry; type: functional; details: Trichosporon asahii, 1188, 24 h
[26] = tested on: Aspergillus fumigatus; assay: Antimicrobial activity against Aspergillus fumigatus 231 after 48 hrs by spectrophotometry; type: functional; details: Aspergillus fumigatus, 231, 48 h
[27] = tested on: Nakaseomyces glabratus; assay: Antimicrobial activity against Candida glabrata 20/I after 24 hrs by spectrophotometry; type: functional
[28] = tested on: Escherichia coli; assay: Antimicrobial activity against clinical isolate Escherichia coli CCM 4517 after 48 hrs; type: functional; details: CCM 4517, 48 h
[29] = tested on: Candida albicans; assay: Antimicrobial activity against Candida albicans ATCC 44859 after 24 hrs by spectrophotometry; type: functional; details: ATCC 44859, 24 h
[30] = tested on: Candida tropicalis; assay: Antimicrobial activity against Candida tropicalis 156 after 24 hrs by spectrophotometry; type: functional; details: Candida tropicalis, 156, 24 h
[31] = tested on: Aspergillus fumigatus; assay: Antimicrobial activity against Aspergillus fumigatus 231 after 24 hrs by spectrophotometry; type: functional; details: Aspergillus fumigatus, 231, 24 h
[32] = tested on: Pseudomonas aeruginosa; assay: Antimicrobial activity against clinical isolate Pseudomonas aeruginosa CCM 1961 after 120 hrs; type: functional; details: CCM 1961, 120 h
[33] = tested on: Staphylococcus aureus; assay: Antimicrobial activity against clinical isolate Staphylococcus aureus CCM 451608 after 48 hrs; type: functional; details: CCM 451608, 48 h

CCCCCCCCCCCCCCCC[N+](C)(C)Cc1ccccc1
MFC [1]: 63 µM | MIC [1]: 3.9 µM | MFC [2]: 2 µM | MIC [2]: 2 µM | MIC [3]: 7.8 µM | MFC [4]: 63 µM | MIC [4]: 7.8 µM | MFC [5]: 7.8 µM | MIC [5]: 7.83 µM | MIC [6]: 7.8 µM | MIC [7]: 7.8 µM | MIC [8]: 1 µM | MIC [9]: 2 µM | MBC [10]: 3.9 µM | MIC [10]: 2 µM | MBC [11]: 3.9 µM | MIC [11]: 0.5 µM | MBC [12]: 7.8 µM | MIC [12]: 7.8 µM | MIC [13]: 7.8 µM | MIC [14]: 16 µM | MIC [15]: 7.8 µM | IC50 [16]: 15 µM | MFC [17]: 63 µM | MIC [17]: 7.8 µM | MIC [18]: 2 µM | MFC [19]: 63 µM | MIC [19]: 7.8 µM | MFC [20]: 7.8 µM | MIC [20]: 7.8 µM | MBC [21]: 3.9 µM | MIC [21]: 2 µM | MBC [22]: 7.8 µM | MIC [22]: 7.8 µM | MIC [23]: 2 µM | MIC [24]: 0.5 µM | MIC [25]: 7.8 µM | MFC [26]: 63 µM | MIC [26]: 7.8 µM | MIC [27]: 2 µM | MBC [28]: 7.8 µM | MIC [28]: 7.8 µM | MIC [29]: 3.9 µM | MIC [30]: 3.9 µM | MIC [31]: 7.8 µM | MBC [32]: 125 µM | MIC [32]: 16 µM | MBC [33]: 3.9 µM | MIC [33]: 1 µM

CCCCCCCCCCCC[n+]1ccc2c(O)cccc2c1
MFC [1]: 7.8 µM | MIC [1]: 3.9 µM | MFC [2]: 7.8 µM | MIC [2]: 7.8 µM | MIC [3]: 63 µM | MFC [4]: 250 µM | MIC [4]: 125 µM | MFC [5]: 63 µM | MIC [5]: 63 µM | MIC [6]: 31 µM | MIC [7]: 250 µM | MIC [8]: 1 µM | MIC [9]: 3.9 µM | MBC [10]: 63 µM | MIC [10]: 63 µM | MBC [11]: 3.9 µM | MIC [11]: 3.9 µM | MBC [12]: 63 µM | MIC [12]: 63 µM | MIC [13]: 125 µM | MIC [14]: 63 µM | MIC [15]: 63 µM | IC50 [16]: 36 µM | MFC [17]: 63 µM | MIC [17]: 31 µM | MIC [18]: 7.8 µM | MFC [19]: 31 µM | MIC [19]: 31 µM | MFC [20]: 63 µM | MIC [20]: 31 µM | MBC [21]: 3.9 µM | MIC [21]: 3.9 µM | MBC [22]: 63 µM | MIC [22]: 63 µM | MIC [23]: 63 µM | MIC [24]: 3.9 µM | MIC [25]: 31 µM | MFC [26]: 250 µM | MIC [26]: 31 µM | MIC [27]: 3.9 µM | MBC [28]: 250 µM | MIC [28]: 250 µM | MIC [29]: 63 µM | MIC [30]: 31 µM | MIC [31]: 31 µM | MBC [32]: 63 µM | MIC [32]: 63 µM | MBC [33]: 2 µM | MIC [33]: 1 µM

CCCCCCCCCC[n+]1ccc2c(O)cccc2c1
MFC [1]: 63 µM | MIC [1]: 16 µM | MFC [2]: 31 µM | MIC [2]: 31 µM | MIC [3]: 63 µM | MFC [4]: > 500 µM | MIC [4]: > 500 µM | MFC [5]: 250 µM | MIC [5]: 250 µM | MIC [6]: 31 µM | MIC [7]: 63 µM | MIC [8]: 16 µM | MIC [9]: 31 µM | MBC [10]: 500 µM | MIC [10]: 500 µM | MBC [11]: 250 µM | MIC [11]: 250 µM | MBC [12]: 63 µM | MIC [12]: 63 µM | MIC [13]: > 500 µM | MIC [14]: 250 µM | MIC [15]: 500 µM | IC50 [16]: 92 µM | MFC [17]: 125 µM | MIC [17]: 31 µM | MIC [18]: 31 µM | MFC [19]: 500 µM | MIC [19]: 250 µM | MFC [20]: 500 µM | MIC [20]: 125 µM | MBC [21]: 16 µM | MIC [21]: 31 µM | MBC [22]: 500 µM | MIC [22]: 500 µM | MIC [23]: 500 µM | MIC [24]: 250 µM | MIC [25]: 250 µM | MFC [26]: > 500 µM | MIC [26]: > 500 µM | MIC [27]: 16 µM | MBC [28]: 63 µM | MIC [28]: 63 µM | MIC [29]: 250 µM | MIC [30]: 125 µM | MIC [31]: > 500 µM | MBC [32]: > 500 µM | MIC [32]: 250 µM | MBC [33]: 63 µM | MIC [33]: 16 µM
